The values below come from PMC7567334 (Environmental Health Perspectives, 2020).

Entries after “also recorded” stand apart in the source; their conditions may differ.

Data set [1] deals with T1, human (h)AR (Homo sapiens, UniProt P10275).
T1 sequence (P10275 1-920): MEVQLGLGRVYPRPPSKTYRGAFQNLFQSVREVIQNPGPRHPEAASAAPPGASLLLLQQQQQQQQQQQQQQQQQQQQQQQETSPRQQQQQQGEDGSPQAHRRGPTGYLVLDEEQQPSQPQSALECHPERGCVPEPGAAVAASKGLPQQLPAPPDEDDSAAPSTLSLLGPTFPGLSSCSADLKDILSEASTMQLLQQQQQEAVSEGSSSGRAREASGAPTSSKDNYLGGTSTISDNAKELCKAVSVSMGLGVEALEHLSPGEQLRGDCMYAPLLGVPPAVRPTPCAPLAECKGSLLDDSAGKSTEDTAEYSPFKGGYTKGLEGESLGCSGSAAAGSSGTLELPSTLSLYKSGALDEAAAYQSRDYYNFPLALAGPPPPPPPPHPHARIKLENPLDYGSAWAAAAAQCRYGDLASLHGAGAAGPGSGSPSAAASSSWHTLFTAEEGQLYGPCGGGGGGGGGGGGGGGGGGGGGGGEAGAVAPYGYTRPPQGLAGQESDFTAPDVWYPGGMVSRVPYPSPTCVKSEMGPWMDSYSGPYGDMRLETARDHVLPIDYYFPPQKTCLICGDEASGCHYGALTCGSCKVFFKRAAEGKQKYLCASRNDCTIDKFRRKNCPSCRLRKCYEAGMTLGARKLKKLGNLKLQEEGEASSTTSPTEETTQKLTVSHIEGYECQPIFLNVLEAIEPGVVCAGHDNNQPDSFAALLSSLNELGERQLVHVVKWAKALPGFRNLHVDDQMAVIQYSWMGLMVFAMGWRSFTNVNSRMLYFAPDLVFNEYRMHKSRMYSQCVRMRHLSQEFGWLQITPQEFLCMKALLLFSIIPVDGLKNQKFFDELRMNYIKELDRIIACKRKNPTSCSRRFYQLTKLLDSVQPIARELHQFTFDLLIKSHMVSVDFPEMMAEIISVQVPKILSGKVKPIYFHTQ
Description: AR-EcoScreen hAR transcriptional activation assay, agonist setup. The class given is cell-based.

For data set [2], the target named is T1, human (h)AR. Description: AR-EcoScreen hAR transcriptional activation assay, antagonist setup (500 pM DHT). The class given is cell-based. Conditions: vs 0.1% DMSO with 500 pM DHT.
Data set [3] concerns the target T2, AR (Rattus norvegicus, UniProt P15207).
T2 construct: purchased Invitrogen
T2 sequence (P15207 651-902 limits assumed): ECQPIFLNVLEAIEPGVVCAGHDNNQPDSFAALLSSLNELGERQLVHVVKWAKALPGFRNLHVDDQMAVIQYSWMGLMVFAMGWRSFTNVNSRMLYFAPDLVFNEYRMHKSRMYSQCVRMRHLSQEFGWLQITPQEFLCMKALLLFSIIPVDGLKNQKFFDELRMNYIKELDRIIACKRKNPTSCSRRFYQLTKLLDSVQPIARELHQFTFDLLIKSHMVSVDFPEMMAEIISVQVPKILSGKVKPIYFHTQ
The experiment in a line: PolarScreen AR Competitor binding affinity assay. Conditions: in words; tested up to 10 μM.

In data set [4] the target is T3, firefly luciferase (Photinus pyralis, UniProt P08659).
T3 construct: Only implied by 'CP' in the vector name, from my own knowledge; expressed in transfected cells; host or cells: GH3.TRE-Luc cells induced with 0.25 nM T3, lysate
The experiment in a line: Luciferase inhibition assay in GH3.TRE-Luc cell lysates. The data set is classed as biochemical. To be noted: cell lysate, read-out: inhibition of firefly luciferase luminescence signal. The procedure:
Serial dilutions for each treatment were prepared in the cell lysate and incubated at room temperature for 30 min.

Data set [5] relates to Estrogen receptor-α. To be noted: cited from earlier work.
For data set [6], the system named is Glucocorticoid receptor. To be noted: ref Kolšek et al. 2014a, cited from earlier work.
For data set [7], the system named is recombinant AR. Conditions: ref Chen et al. 2008; cited from earlier work.
In data set [8] the test system is AroB transcription. To be noted: 0.25 μM triclocarban added to 1 nM E2; zebrafish embryos; ref Chung et al. 2011; cited from earlier work.
The test system of data set [9] is AR-EcoScreen cells. Description: Cell viability (resazurin) in AR-EcoScreen cells. Conditions: agonist assay. (In general: Resazurin is reduced to fluorescent resorufin, in cell work by metabolically active cells.)
The test system of data set [10] is hERα-HeLa-9903 cells. The experiment in a line: Cell viability (resazurin) in hERα-HeLa-9903 cells.
Data set [11] has as its target T4, GR (Homo sapiens, UniProt P04150).
T4 sequence (P04150 1-777): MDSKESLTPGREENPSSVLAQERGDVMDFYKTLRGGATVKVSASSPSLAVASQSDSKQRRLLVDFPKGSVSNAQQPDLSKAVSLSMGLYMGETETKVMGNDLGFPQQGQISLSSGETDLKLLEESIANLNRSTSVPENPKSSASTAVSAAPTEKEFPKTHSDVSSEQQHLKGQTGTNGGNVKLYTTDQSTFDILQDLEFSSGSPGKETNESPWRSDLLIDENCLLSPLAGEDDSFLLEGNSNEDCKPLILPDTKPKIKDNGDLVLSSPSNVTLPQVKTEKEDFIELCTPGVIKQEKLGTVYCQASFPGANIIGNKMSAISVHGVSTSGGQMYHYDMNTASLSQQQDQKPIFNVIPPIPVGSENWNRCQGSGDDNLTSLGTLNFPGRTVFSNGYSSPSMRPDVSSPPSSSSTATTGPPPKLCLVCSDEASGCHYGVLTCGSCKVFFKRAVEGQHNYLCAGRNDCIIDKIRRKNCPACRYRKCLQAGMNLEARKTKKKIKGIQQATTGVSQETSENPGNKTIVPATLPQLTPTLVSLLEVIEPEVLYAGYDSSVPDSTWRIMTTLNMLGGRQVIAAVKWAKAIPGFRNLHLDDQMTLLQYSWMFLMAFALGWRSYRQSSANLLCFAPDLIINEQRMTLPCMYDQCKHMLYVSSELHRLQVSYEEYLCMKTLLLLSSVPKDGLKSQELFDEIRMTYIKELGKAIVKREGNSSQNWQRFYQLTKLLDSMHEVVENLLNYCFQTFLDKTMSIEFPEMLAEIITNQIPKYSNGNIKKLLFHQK
Description: MDA-kb2 GR reporter assay, antagonist setup (500 nM HC). The data set is classed as cell-based. Set-up: constitutively expressed high levels of functional GR and AR; host or cells: MDA-kb2.

[12] abbreviates: BG1-ERE cells, ref Ahn et al. 2008.

T3 sequence (P08659 whole entry): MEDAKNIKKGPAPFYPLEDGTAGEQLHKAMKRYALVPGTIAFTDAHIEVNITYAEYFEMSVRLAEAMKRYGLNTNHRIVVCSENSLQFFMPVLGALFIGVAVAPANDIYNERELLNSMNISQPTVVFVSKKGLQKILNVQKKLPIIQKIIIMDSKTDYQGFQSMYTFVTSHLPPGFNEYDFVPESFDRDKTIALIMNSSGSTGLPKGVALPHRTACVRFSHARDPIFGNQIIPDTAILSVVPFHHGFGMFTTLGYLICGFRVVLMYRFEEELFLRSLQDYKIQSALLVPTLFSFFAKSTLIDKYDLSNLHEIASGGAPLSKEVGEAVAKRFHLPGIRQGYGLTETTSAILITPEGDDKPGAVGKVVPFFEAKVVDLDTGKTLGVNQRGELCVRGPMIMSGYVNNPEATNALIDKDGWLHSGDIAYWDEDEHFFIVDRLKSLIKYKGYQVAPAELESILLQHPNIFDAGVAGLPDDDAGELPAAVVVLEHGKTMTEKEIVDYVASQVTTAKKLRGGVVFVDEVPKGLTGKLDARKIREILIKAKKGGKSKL

A word on the inhibition: it is the relative decrease from the control value, in per cent. `O=C(Nc1ccc(Cl)cc1)Nc1ccc(Cl)c(Cl)c1` [Triclocarban, 1-(4-Chlorophenyl)-3-(3,4-dichlorophenyl) urea]: the “higher AR RTA than vehicle control” value in [1] (1 μM, vs 0.1% DMSO) is recorded as 40.4%. Besides, the “higher AR RTA over vehicle control” value in data set [1] (2.5 μM, vs 0.1% DMSO) is given as 30.3%. In addition, in data set [1] (AR-EcoScreen), the “AR agonist activity, call” value is reported as “Agonist” and the “concentration with AR agonist activity” value lay in the range of 1 to 2.5 µM. The “higher AR RTA than spike-in control” value in data set [2] (1 μM) is on record as 30.7%. The “higher AR RTA than spike-in control” value in [2] (2.5 μM) was 39.4%. Also, the “binding affinity assay on isolated AR, result” value in data set [3] is “did not show binding; also recorded: No binding; also recorded: negative”. Besides, the inhibition at 50 µM in [4] amounted to 46.7%. In [5] (setting [12]), the “effect on ER with β-estradiol” value is “Enhancer of β-estradiol activity in BG1-ERE cells ([Ahn et al. 2008])” and the “effect on ER, compound alone” value is “Agonist in BG1-ERE cells ([Ahn et al. 2008])”. In data set [5] (hERα-HeLa-9903 cells, ref Tarnow et al. 2013), the “effect on ERα” value is “Enhancer of β-estradiol activity in hERα-HeLa-9903 cells ([Tarnow et al. 2013])”. For the same compound, the “effect on GR with HC” value in data set [6] (MDA-kb2 cells) is “Enhancer of HC activity in MDA-kb2 cells ([Kolšek et al. 2014a])”. Moreover, the “concentration with enhanced HC activity on GR” value in data set [6] is 2 µM. For the same compound, the “binding to recombinant AR” value in [7] is “Negative for recombinant AR ([Chen et al. 2008])”. Further, the “increase in AroB transcription” value in data set [8] was 18 fold. The compound further came in with a highest noncytotoxic concentration in data set [9] of 2.5 µM. Moreover, the highest noncytotoxic concentration in data set [10] (hERα-HeLa-9903) came to 5 µM. Also, the “highest tested concentration as limited by precipitation and cytotoxicity” value in data set [10] (hERα-HeLa-9903, ERα agonist dose-response) stood at 5 µM. In data set [11] (5 μM, vs 0.1% DMSO with 500 nM HC), the “lower GR RTA than spike-in control” value turned out to be 38.9%. Further, in data set [11] (MDA-kb2), the “GR antagonist activity, call” value is on record as “Antagonist” and the “concentration with GR antagonist activity” value came out at 5 µM.
